# “And” between values parts separate entries of the source, which are not always exact repeats. Equal entries are not always repeated.
# Target: SSTR2 (Homo sapiens, UniProt P30874)
# Experiment: NanoBiT β-arrestin 1 recruitment assay, HEK293 (SSTR2 wild-type);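 on Bottom (best-fit): percent of maximal wild-type response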;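 on Bottom: percent of maximal wild-type response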;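 on Span (best-fit value): percent of maximal wild-type response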;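 on Span (best-fit): percent of maximal wild-type response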;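 on Span: percent of maximal wild-type response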;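 on Top (best-fit value): percent of maximal wild-type response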;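 on Top (best-fit): percent of maximal wild-type response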;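 on Top: percent of maximal wild-type response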
# Format: cell-based
# Design: Human full-length SSTR wild-type and mutant vectors were C-terminally fused; expressed in transfected cells; host or cells: HEK293; Best-fit values Bottom / Best-fit values Top / Best-fit values Span / Best-fit Bottom / Best-fit Top / Best-fit Span: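 percent of maximal wild-type response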
# Conditions: for Span (best-fit value) / Top (best-fit value): β-arrestin1 recruitment
# Method: The NanoBiT β-arrestin 1 recruitment assays were carried out according to the method described previously. […] Human full-length SSTR wild-type and mutant vectors were C-terminally fused with a 15-amino acid flexible linker and the small fragment (SmBiT). HEK293 cells were seeded into six-well microplates at a density of 1.0 × 10^6 cells/well and cultured for 24 h at 37 °C with 5% CO2. After that, cells were co-transfected with pcDNA3.1+ vectors encoding SSTR wild-type or mutants and human β-arrestin 1. After transfecting for 24 h, the transfected cells were suspended and seeded into white 96-well plates, and then cultured at 37 °C overnight. After that the medium in each well was exchanged for 90 μl of 0.01% bovine serum albumin containing 20 μl of 50 μM coelenterazine h (Carbosynth) diluted in the HBSS assay buffer and incubated for 40 min at room temperature. Then, ligands diluted in the assay buffer was added to each well and the luminescence intensity was measured using the Synergy H1 microplate reader and detected at room temperature in a time period. All data presented are means of at least three independent experiments.
# [1] = D122A set WT-3 = Q126A/Y205A set WT-2 = F208A set WT-3
# [2] = F127A set WT-1 = I130A set WT-2
# [3] = F127A set WT-3 = I130A set WT-1
# [4] = Q126A/I130A set WT-3 = F127A set WT-2
# [5] = SSTR2 WT-1 (run 1 of WT in the mutant's section)
# [6] = SSTR2 WT-2 (run 2 of WT in the mutant's section)
# [7] = SSTR2 WT-3 (run 3 of WT in the mutant's section)
# [8] = best-fit value, WT-1 (run 1, WT of each mutant's batch)
# [9] = best-fit value, WT-2 (run 2, WT of each mutant's batch)
# [10] = best-fit value, WT-3 (run 3, WT of each mutant's batch)
# SSTR2, sequence (P30874 whole entry): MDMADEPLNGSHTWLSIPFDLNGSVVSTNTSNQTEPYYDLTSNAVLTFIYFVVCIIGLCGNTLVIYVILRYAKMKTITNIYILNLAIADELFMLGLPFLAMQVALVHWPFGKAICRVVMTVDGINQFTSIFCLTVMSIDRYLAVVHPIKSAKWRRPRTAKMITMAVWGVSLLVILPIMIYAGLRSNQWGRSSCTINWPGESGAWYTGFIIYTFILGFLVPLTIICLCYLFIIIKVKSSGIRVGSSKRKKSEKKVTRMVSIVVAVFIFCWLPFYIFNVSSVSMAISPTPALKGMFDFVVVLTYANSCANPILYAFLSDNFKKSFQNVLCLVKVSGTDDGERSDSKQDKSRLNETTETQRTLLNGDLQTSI
# SSTR2, sequence (P49407 whole entry partner): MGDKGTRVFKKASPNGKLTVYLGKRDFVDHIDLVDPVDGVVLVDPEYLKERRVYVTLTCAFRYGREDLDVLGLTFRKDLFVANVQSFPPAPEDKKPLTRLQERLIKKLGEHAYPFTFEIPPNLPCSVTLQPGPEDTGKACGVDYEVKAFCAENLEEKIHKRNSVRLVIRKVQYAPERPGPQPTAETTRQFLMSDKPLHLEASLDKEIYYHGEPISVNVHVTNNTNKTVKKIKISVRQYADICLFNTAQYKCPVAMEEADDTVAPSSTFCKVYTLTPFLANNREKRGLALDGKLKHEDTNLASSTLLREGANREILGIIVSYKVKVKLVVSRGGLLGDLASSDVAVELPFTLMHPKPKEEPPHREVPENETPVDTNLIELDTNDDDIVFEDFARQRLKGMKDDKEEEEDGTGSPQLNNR
structure (smiles),measurement,setting,value
C[C@@H](O)[C@@H]1NC(=O)[C@H](CCCCN)NC(=O)[C@@H](Cc2c[nH]c3ccccc23)NC(=O)[C@H](Cc2ccccc2)NC(=O)[C@@H](NC(=O)[C@H](N)Cc2ccccc2)CSSC[C@@H](C(=O)N[C@H](CO)[C@@H](C)O)NC1=O [octreotide],Bottom (best-fit),D122A set WT-1,12.18
same,Span (best-fit),D122A set WT-1,93.68
same,Top (best-fit),D122A set WT-1,105.9
same,Bottom (best-fit),D122A set WT-2,4.265
same,Span (best-fit),D122A set WT-2,83.04
same,Top (best-fit),D122A set WT-2,87.31
same,Bottom (best-fit),[1],-0.5169
same,Span (best-fit),[1],99.09
same,Top (best-fit),[1],98.58
same,Bottom (best-fit),[2],-0.5804
same,Span (best-fit),[2],101.3
same,Top (best-fit),[2],100.7
same,Bottom (best-fit),[3],-0.2332
same,Span (best-fit),[3],101
same,Top (best-fit),[3],100.8
same,Bottom (best-fit),F208A set WT-1,-0.7342
same,Span (best-fit),F208A set WT-1,99.34
same,Top (best-fit),F208A set WT-1,98.6
same,Bottom (best-fit),F208A set WT-2,-1.061
same,Span (best-fit),F208A set WT-2,99.77
same,Top (best-fit),F208A set WT-2,98.71
same,Emax,HEK293,100%
same,Bottom (best-fit),Q126A set WT-1,-2.277
same,Span (best-fit),Q126A set WT-1,105
same,Top (best-fit),Q126A set WT-1,102.7
same,Bottom (best-fit),[4],0.158
same,Span (best-fit),[4],100.8
same,Top (best-fit),[4],100.9
same,Span (best-fit value),[5],93.68 and 99.09 and 83.04 and 90.27 and 99.77
same,Top (best-fit value),[5],105.9 and 98.58 and 87.31 and 89.81 and 98.2
same,Span (best-fit value),[6],83.04 and 105 and 80.44 and 93.46 and 96.97
same,Top (best-fit value),[6],87.31 and 102.7 and 85.95 and 93.4 and 96.99
same,Span (best-fit value),[7],99.09 and 101.1 and 95.18 and 96.4
same,Top (best-fit value),[7],98.58 and 97.65 and 95.41 and 96.36
same,Best-fit values Bottom,WT-1 (F265A set),0.158
same,Best-fit values Span,WT-1 (F265A set),100.8
same,Best-fit values Top,WT-1 (F265A set),100.9
same,Best-fit values Bottom,WT-1 (F272A set),4.265
same,Best-fit values Span,WT-1 (F272A set),83.04
same,Best-fit values Top,WT-1 (F272A set),87.31
same,Best-fit values Bottom,WT-1 (K291A set),12.18
same,Best-fit values Bottom,WT-1 (N276A set),12.18
same,Best-fit values Span,WT-1 (N276A set),93.68
same,Best-fit values Top,WT-1 (N276A set),105.9
same,Best-fit values Bottom,WT-1 (P220A set),1.374
same,Best-fit values Span,WT-1 (P220A set),94.44
same,Best-fit values Top,WT-1 (P220A set),95.82
same,Best-fit values Bottom,WT-1 (W269A set),-1.494
same,Best-fit values Span,WT-1 (W269A set),99.94
same,Best-fit values Top,WT-1 (W269A set),98.45
same,Best-fit values Bottom,WT-2 (F265A set),-0.2332
same,Best-fit values Span,WT-2 (F265A set),101
same,Best-fit values Top,WT-2 (F265A set),100.8
same,Best-fit values Bottom,WT-2 (F272A set),12.18
same,Best-fit values Span,WT-2 (F272A set),93.68
same,Best-fit values Top,WT-2 (F272A set),105.9
same,Best-fit values Bottom,WT-2 (K291A set),4.265
same,Best-fit values Bottom,WT-2 (N276A set),4.265
same,Best-fit values Span,WT-2 (N276A set),83.04
same,Best-fit values Top,WT-2 (N276A set),87.31
same,Best-fit values Bottom,WT-2 (P220A set),-0.5804
same,Best-fit values Span,WT-2 (P220A set),101.3
same,Best-fit values Top,WT-2 (P220A set),100.7
same,Best-fit values Bottom,WT-2 (W269A set),12.18
same,Best-fit values Span,WT-2 (W269A set),93.68
same,Best-fit values Top,WT-2 (W269A set),105.9
same,Best-fit values Bottom,WT-3 (F265A set),-0.5804
same,Best-fit values Span,WT-3 (F265A set),101.3
same,Best-fit values Top,WT-3 (F265A set),100.7
same,Best-fit values Bottom,WT-3 (F272A set),-0.5169
same,Best-fit values Span,WT-3 (F272A set),99.09
same,Best-fit values Top,WT-3 (F272A set),98.58
same,Best-fit values Bottom,WT-3 (K291A set),-0.5169
same,Best-fit values Bottom,WT-3 (N276A set),-0.5169
same,Best-fit values Span,WT-3 (N276A set),99.09
same,Best-fit values Top,WT-3 (N276A set),98.58
same,Best-fit values Bottom,WT-3 (P220A set),-0.2332
same,Best-fit values Span,WT-3 (P220A set),101
same,Best-fit values Top,WT-3 (P220A set),100.8
same,Best-fit values Bottom,WT-3 (W269A set),6.264
same,Best-fit values Span,WT-3 (W269A set),85.81
same,Best-fit values Top,WT-3 (W269A set),92.07
same,Bottom (best-fit),Y205A set WT-1,-3.442
same,Span (best-fit),Y205A set WT-1,101.1
same,Top (best-fit),Y205A set WT-1,97.65
same,Bottom (best-fit),Y205A set WT-3,2.142
same,Span (best-fit),Y205A set WT-3,104.5
same,Top (best-fit),Y205A set WT-3,106.6
same,Span,[8],99.09 and 101 and 68.4
same,Top,[8],98.58 and 100.8 and 104.3
same,Span,[9],99.09 and 99.34 and 102.9 and 105
same,Top,[9],98.58 and 98.6 and 97.73 and 102.7
same,Span,[10],99.09 and 99.77 and 100.8 and 101.1
same,Top,[10],98.58 and 98.71 and 100.9 and 97.65
same,Bottom,"best-fit, WT-1 (I284A batch)",12.18
same,Span,"best-fit, WT-1 (I284A batch)",93.68
same,Top,"best-fit, WT-1 (I284A batch)",105.9
same,Bottom,"best-fit, WT-1 (P286A batch)",5.515
same,Span,"best-fit, WT-1 (P286A batch)",80.44
same,Top,"best-fit, WT-1 (P286A batch)",85.95
same,Bottom,"best-fit, WT-1 (S285A batch)",6.264
same,Span,"best-fit, WT-1 (S285A batch)",85.81
same,Top,"best-fit, WT-1 (S285A batch)",92.07
same,Bottom,"best-fit, WT-1 (T194A batch)",-0.5169
same,Top,"best-fit, WT-1 (T194A batch)",98.58
same,Bottom,"best-fit, WT-1 (T287A batch)",4.265
same,Span,"best-fit, WT-1 (T287A batch)",83.04
same,Top,"best-fit, WT-1 (T287A batch)",87.31
same,Bottom,"best-fit, WT-1 (W188A batch)",6.264
same,Span,"best-fit, WT-1 (W188A batch)",85.81
same,Top,"best-fit, WT-1 (W188A batch)",92.07
same,Bottom,"best-fit, WT-2 (I284A batch)",-1.639
same,Span,"best-fit, WT-2 (I284A batch)",102.1
same,Top,"best-fit, WT-2 (I284A batch)",100.5
same,Bottom,"best-fit, WT-2 (P286A batch)",4.265
same,Span,"best-fit, WT-2 (P286A batch)",83.04
same,Top,"best-fit, WT-2 (P286A batch)",87.31
same,Bottom,"best-fit, WT-2 (S285A batch)",12.18
same,Span,"best-fit, WT-2 (S285A batch)",93.68
same,Top,"best-fit, WT-2 (S285A batch)",105.9
same,Bottom,"best-fit, WT-2 (T194A batch)",-0.7342
same,Top,"best-fit, WT-2 (T194A batch)",98.6
same,Bottom,"best-fit, WT-2 (T287A batch)",5.515
same,Span,"best-fit, WT-2 (T287A batch)",80.44
same,Top,"best-fit, WT-2 (T287A batch)",85.95
same,Bottom,"best-fit, WT-2 (W188A batch)",-0.5169
same,Span,"best-fit, WT-2 (W188A batch)",99.09
same,Top,"best-fit, WT-2 (W188A batch)",98.58
same,Bottom,"best-fit, WT-3 (I284A batch)",6.264
same,Span,"best-fit, WT-3 (I284A batch)",85.81
same,Top,"best-fit, WT-3 (I284A batch)",92.07
same,Bottom,"best-fit, WT-3 (P286A batch)",4.265
same,Span,"best-fit, WT-3 (P286A batch)",83.04
same,Top,"best-fit, WT-3 (P286A batch)",87.31
same,Bottom,"best-fit, WT-3 (S285A batch)",4.265
same,Span,"best-fit, WT-3 (S285A batch)",83.04
same,Top,"best-fit, WT-3 (S285A batch)",87.31
same,Bottom,"best-fit, WT-3 (T194A batch)",-1.061
same,Top,"best-fit, WT-3 (T194A batch)",98.71
same,Bottom,"best-fit, WT-3 (T287A batch)",-0.5169
same,Span,"best-fit, WT-3 (T287A batch)",99.09
same,Top,"best-fit, WT-3 (T287A batch)",98.58
same,Bottom,"best-fit, WT-3 (W188A batch)",12.18
same,Span,"best-fit, WT-3 (W188A batch)",93.68
same,Top,"best-fit, WT-3 (W188A batch)",105.9
